For 64 molecules, AC50 results are on record in PubChem BioAssay AID449745 (Broad Institute, 2010).

The structures appear in SMILES notation. Records with an inconclusive call do not appear. Active and inactive are the calls of the source. How the calls were made is not given here.

The target in the assay is Zinc finger protein mex-5 (Caenorhabditis elegans) (UniProt Q9XUB2). Kind of assay: MEX-5 RNA-binding inhibition confirmation – biochemical, C. elegans, fluorescence polarization, dose retest (AID 449745).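 Further: potency is for blocking Mex-5 binding to labeled TCR2 RNA like unlabeled competitor.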 The conditions noted are these: Mex-5 / TCR-2 RNA binding. For orientation: Fluorescence polarisation rises when a labelled molecule tumbles more slowly, as on binding a larger partner.
Zinc finger protein mex-5 (Caenorhabditis elegans), sequence (Q9XUB2 whole entry, looked up): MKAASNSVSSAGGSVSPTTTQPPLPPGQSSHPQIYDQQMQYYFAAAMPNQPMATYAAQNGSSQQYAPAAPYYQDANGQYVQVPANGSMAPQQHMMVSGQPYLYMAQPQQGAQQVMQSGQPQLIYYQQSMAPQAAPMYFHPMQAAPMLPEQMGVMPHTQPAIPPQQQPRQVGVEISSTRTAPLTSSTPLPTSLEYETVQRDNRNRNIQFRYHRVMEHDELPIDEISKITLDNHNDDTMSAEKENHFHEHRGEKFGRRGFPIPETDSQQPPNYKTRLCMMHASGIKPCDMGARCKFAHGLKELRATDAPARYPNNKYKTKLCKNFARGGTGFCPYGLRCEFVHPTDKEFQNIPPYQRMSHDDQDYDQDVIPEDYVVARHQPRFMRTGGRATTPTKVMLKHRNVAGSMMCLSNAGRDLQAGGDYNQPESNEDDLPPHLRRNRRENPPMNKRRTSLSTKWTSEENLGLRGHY

The term AC50 denotes the concentration at which the activity in the assay is half-maximal. On to `Cc1cc(C)c2c(c1)NC(C(=O)O)C1CC=CC21` (centres undefined), for which the AC50 was 13.3 µM.
With `CCOC(=O)c1ccc(NC(=O)C(=O)NCc2ccc(/C=C(/C#N)C(=O)NCCOC)o2)cc1`, the AC50 was > 38 µM (inactive).
For the molecule `Cc1cc(C)cc(NC(=O)N(C)Cc2ccccc2)c1`, the AC50 is > 38 µM (inactive).
Take `CC(C)(O)C(=O)NNC(=S)NCc1ccco1`: the AC50 was 4.16 µM.
Regarding `COc1ccc(OC)c(N2C(=O)NC(=O)/C(=C\c3ccc([N+](=O)[O-])s3)C2=O)c1`, the AC50 is 16.1 µM.
Turning to `CC1CN(c2nc3ccccc3nc2C(C#N)C(=O)NCc2ccc3c(c2)OCO3)CC(C)O1` (centres undefined), the AC50 is 23.8 µM.
Then `O=C1C(Cl)=C(NC(=O)c2ccccc2)C(=O)C(Cl)=C1NC(=O)c1ccccc1`, with under 0.3 µM; and `Cc1cccc(C)c1NC(=O)/C(C#N)=C/c1ccc(-c2ccc(C(=O)O)cc2)o1`, with > 38 µM (inactive).
`Oc1ccc(/C=N/n2c(-c3ccccc3)n[nH]c2=S)cc1Br`: the AC50 is 13.1 µM.
For the molecule `O=C1c2cccc3c(Cl)ccc(c23)C(=O)N1O`, the AC50 was 26.2 µM.
Then `NS(=O)(=O)c1ccc(N=Nc2c(=O)[nH]n3c(=O)c4c([nH]c23)CCCC4)cc1`, with under 0.3 µM; and `O=C1c2ccccc2C(=O)N1/N=C/c1ccc(O)c(O)c1O`, with 0.798 µM.
Consider `COc1ccc(C(=O)N2C(=S)NC(=O)/C2=C\c2ccc(C)cc2)cc1`, for which the AC50 is > 38 µM (inactive).
For `COC(=O)/C=C1/S/C(=N/NC(=O)c2ccc(Cl)cc2Cl)NC1=O` the value was 22.4 µM; for `Cc1cccc(CS(=O)(=O)c2nnc([C@H](Cc3ccccc3)NC(=O)OC(C)(C)C)o2)c1`, > 38 µM (inactive).
As for `COc1cccc(NC(=O)CSc2nc3ccccc3nc2N2CCOCC2)c1`, the AC50 was > 38 µM (inactive).
Consider `Cc1ccc(O)c(N=CC2=C(O)c3ccccc3C2=O)c1`, for which the AC50 was 24.8 µM.
For `COc1ccc(N(C(=O)CCl)C(C)(C(=O)Nc2c(C)cccc2C)c2ccccn2)cc1` (centres undefined), the AC50 was > 38 µM (inactive).
For the molecule `CN(C)[C@@H]1C(=O)C(C(N)=O)=C(O)[C@@]2(O)C(=O)C3=C(O)c4c(O)cccc4[C@@](C)(O)[C@H]3[C@H](O)[C@@H]12`, the AC50 is 12 µM.
On to `CCn1c(C)c(C(C)=O)c(N2CCN(c3ccccc3)CC2)nc1=S`, for which the AC50 is > 38 µM (inactive).
As for `CCCCC1=CC2=C(c3ccco3)C(=O)C(C)(OC(=O)c3ccc(OC)cc3)C(=O)C2=CN1C(CO)CO` (centres undefined), the AC50 is > 38 µM (inactive).
Take `C/C(=N/Nc1ccc(C(=O)O)cc1)c1ccc(O)c(O)c1O`: the AC50 was 11.1 µM.
Consider `O=C(/C=C/c1ccc(O)c(O)c1)OC1C(O)CC(OC(=O)/C=C/c2ccc(O)c(O)c2)(C(=O)O)CC1O` (centres undefined), for which the AC50 was 15.9 µM.
Then `C#CCN1C(=O)S/C(=C\c2ccc(-c3ccc(Cl)c(C(=O)O)c3)o2)C1=O`, with > 38 µM (inactive); and `COc1ccccc1CN1CC(C(=O)NCCN(C)CCc2ccccc2)CCC1=O` (centres undefined), with > 38 µM (inactive); and `COc1ccccc1-n1c(C)nc2cc(C(=O)NCc3ccc4c(c3)OCO4)ccc21`, with > 38 µM (inactive).
`NC1=NC(=O)/C(=C\C=C\c2ccccc2)S1`: the AC50 is > 38 µM (inactive).
For `CN1CCN(c2ccc([N+](=O)[O-])c3no[n+]([O-])c23)CC1` the value was 33.4 µM.
As for `Cc1ccc(/C=C2/NC(=O)N(Cc3ccccc3)C2=O)s1`, the AC50 was > 38 µM (inactive).
Regarding `COc1ccc(C(=O)c2c(N)sc3c2CCN(C)C3)cc1`, the AC50 is > 38 µM (inactive).
On to `N#CC1(C#N)C(c2ccccc2)OC23CCCCC2C1(C#N)C(=N)O3` (centres undefined), for which the AC50 is > 38 µM (inactive).
Consider `CNC(=O)c1c(NC(=O)c2ccc(S(=O)(=O)N(C)c3ccccc3)cc2)sc2c1CCN(C(C)C)C2`, for which the concentration at half-maximal activity (AC50) is 25.2 µM.
Turning to `Cc1cccc(N=Nc2c(O)[nH]c3ccc(F)cc23)c1`, the AC50 was 4.46 µM.
Then `COc1ccc2cc(/C=C3\SC(=S)NC3=O)c(N3CCOCC3)nc2c1`, with 24.1 µM; and `COc1ccccc1N1C(C)=CC(=C(C#N)c2nc3ccccc3s2)C=C1C`, with 13.4 µM.
For `CC(=O)Nc1ccc2cc3ccc(NC(C)=O)cc3nc2c1` the value was 10.9 µM; for `COc1ccccc1C(=O)Oc1ccc2c(c1)O/C(=C\c1ccncc1)C2=O`, 10.8 µM; for `Cc1cc(C(=O)NNC(=O)CCCCC(=O)NNC(=O)c2cc(C)[nH]n2)n[nH]1`, under 0.3 µM.
Then `COCCCNC(=O)c1ccc2c3c(onc13)-c1ccccc1C2=O`, with under 0.3 µM; and `COc1cc(C=C2C(=O)c3ccccc3C2=O)cc(OC)c1OC`, with 28.4 µM; and `N#CC(C#N)=NNc1ccc(S(N)(=O)=O)cc1`, with 7.56 µM.
In the case of `CCCCCC#CCC#CCC#CCC#CCCCC(=O)O`, the AC50 was 6.71 µM.
Then `Cc1cc[n+](-c2[nH]c(=O)sc2/C=N/NC([S-])=Nc2ccccc2)cc1`, with 4.83 µM.
For `O=S(=O)(O)c1cccc2c(N=Nc3ccc(O)c4ncccc34)cccc12` the value was 3.04 µM; for `Cn1c(=O)c(Nc2ccc(Cl)cc2)c2c3c(cccc31)C(=O)c1ccccc1-2`, 1.63 µM; for `O=[N+]([O-])c1ccc(O)c(C=Nc2ccc3c(c2)OCCO3)c1`, > 38 µM (inactive).
Then `CC(=O)Nc1ccc(S(=O)(=O)NNC(=O)C(=O)NNc2ccccn2)cc1`, with 0.621 µM.
For `Cc1cccc(-n2c(O)c(C=Nc3ccc4c(c3)OCO4)c3ccccc3c2=O)n1`, the AC50 is 39 µM.
`O=C(O)c1cc(-c2ccco2)nc2cc3ccccc3cc12`: the AC50 is > 38 µM (inactive).
Then `CCc1cccc2cc3c(N)c(C(=O)Nc4ccc(S(=O)(=O)N5CCCC5)cc4)sc3nc12`, with 8.06 µM.
For `CN(C)C1C(=O)C(C(N)=O)=C(O)C2(O)C(=O)C3=C(O)c4c(O)cccc4C(C)(O)C3CC12` (centres undefined) the value was > 38 µM (inactive); for `Cc1cc2n(n1)C(c1c[nH]c3ccccc13)Nc1ccccc1-2` (centres undefined), > 38 µM (inactive).
For `CN(C)c1ccc(/C=C/c2nc3ccccc3c(=O)[nH]2)cc1`, the AC50 is > 38 µM (inactive).
`COc1ccc2c(c1)c1nc3ccccc3nc1n2Cc1ccc(OC(C)C)c(OC)c1`: the AC50 was 24.3 µM.
Then `O=C1CCCC(O)=C1N=Nc1ccc(C(=O)O)cc1`, with 32.9 µM.
For `COc1cc(/C=C2/C(=O)NN(c3ccc(Cl)c(Cl)c3)C2=O)cc([N+](=O)[O-])c1O` the value was 31.6 µM; for `O=C(C[n+]1ccc(C(=O)N/N=C/c2ccc(OCc3ccccc3)cc2)cc1)c1ccccc1`, 18.7 µM.
Then `Cc1ccc(N2C(=O)NC(=O)/C(=C\c3ccc([N+](=O)[O-])o3)C2=O)cc1`, with 6.08 µM.
Consider `O=S(=O)(Nc1ccc(O)c(NS(=O)(=O)c2ccccc2)c1)c1ccccc1`, for which the AC50 was 6.92 µM.
For `COc1ccc2cc(N=Cc3nc(-c4ccc(C)cc4)oc3O)cnc2c1`, the AC50 is > 38 µM (inactive).
As to `CCOC(=O)NNc1ccc2nonc2c1[N+](=O)[O-]`, the AC50 was > 38 µM (inactive).
For `Cc1c(C(=O)NNC(=S)Nc2ccc(S(N)(=O)=O)cc2)oc2ccccc12` the value was 12.1 µM.
Turning to `O=C1NC(=O)N(c2ccccc2)C(=O)/C1=C/c1ccc([N+](=O)[O-])s1`, the AC50 is 23.7 µM.
For `O=C(CCCN1C(=O)/C(=C/c2ccccc2Cl)SC1=S)NNC(=O)c1ccc(Cl)cc1` the value was > 38 µM (inactive).
